# Target: EGFR (UniProt P00533)
# Assay: not given
# EGFR, sequence (P00533 whole entry, looked up): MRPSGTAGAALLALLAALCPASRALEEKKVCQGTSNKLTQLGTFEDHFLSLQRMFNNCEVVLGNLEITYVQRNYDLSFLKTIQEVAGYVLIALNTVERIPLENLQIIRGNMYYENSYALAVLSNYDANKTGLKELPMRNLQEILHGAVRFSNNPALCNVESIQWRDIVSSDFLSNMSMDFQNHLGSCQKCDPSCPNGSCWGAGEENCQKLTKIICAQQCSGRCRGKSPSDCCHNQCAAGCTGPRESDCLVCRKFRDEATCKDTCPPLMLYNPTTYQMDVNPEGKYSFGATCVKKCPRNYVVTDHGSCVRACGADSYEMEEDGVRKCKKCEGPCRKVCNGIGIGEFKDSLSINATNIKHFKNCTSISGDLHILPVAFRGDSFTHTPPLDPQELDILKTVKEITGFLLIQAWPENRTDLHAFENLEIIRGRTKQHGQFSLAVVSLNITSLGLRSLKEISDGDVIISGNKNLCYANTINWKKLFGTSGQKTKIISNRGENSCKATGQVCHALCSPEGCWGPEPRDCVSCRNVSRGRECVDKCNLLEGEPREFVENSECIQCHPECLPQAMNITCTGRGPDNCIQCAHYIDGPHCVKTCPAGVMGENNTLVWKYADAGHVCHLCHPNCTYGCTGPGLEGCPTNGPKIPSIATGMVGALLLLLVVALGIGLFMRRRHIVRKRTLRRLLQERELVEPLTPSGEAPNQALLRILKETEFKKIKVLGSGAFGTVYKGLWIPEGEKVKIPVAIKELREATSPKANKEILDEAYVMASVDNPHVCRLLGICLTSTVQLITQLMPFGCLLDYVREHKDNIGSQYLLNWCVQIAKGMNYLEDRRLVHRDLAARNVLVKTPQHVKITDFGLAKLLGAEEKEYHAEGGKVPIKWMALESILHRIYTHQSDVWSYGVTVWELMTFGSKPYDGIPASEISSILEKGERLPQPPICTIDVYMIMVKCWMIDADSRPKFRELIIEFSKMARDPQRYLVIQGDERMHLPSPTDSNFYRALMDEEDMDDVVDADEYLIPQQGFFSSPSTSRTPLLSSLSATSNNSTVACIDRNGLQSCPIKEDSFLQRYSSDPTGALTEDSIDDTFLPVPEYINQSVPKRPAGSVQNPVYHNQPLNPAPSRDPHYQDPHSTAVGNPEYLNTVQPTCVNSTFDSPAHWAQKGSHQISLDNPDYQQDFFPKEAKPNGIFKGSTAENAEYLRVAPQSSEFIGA
row,SMILES,IC50 [nM]
1,CC(C)(N)[C@H]1CC[C@H](C(=O)Nc2ccncc2)CC1,100000

# Target: ROCK2 (UniProt O75116)
# Assay: Inhibition of ROCK2 Kinase Activity
# ROCK2, sequence (O75116 whole entry, looked up): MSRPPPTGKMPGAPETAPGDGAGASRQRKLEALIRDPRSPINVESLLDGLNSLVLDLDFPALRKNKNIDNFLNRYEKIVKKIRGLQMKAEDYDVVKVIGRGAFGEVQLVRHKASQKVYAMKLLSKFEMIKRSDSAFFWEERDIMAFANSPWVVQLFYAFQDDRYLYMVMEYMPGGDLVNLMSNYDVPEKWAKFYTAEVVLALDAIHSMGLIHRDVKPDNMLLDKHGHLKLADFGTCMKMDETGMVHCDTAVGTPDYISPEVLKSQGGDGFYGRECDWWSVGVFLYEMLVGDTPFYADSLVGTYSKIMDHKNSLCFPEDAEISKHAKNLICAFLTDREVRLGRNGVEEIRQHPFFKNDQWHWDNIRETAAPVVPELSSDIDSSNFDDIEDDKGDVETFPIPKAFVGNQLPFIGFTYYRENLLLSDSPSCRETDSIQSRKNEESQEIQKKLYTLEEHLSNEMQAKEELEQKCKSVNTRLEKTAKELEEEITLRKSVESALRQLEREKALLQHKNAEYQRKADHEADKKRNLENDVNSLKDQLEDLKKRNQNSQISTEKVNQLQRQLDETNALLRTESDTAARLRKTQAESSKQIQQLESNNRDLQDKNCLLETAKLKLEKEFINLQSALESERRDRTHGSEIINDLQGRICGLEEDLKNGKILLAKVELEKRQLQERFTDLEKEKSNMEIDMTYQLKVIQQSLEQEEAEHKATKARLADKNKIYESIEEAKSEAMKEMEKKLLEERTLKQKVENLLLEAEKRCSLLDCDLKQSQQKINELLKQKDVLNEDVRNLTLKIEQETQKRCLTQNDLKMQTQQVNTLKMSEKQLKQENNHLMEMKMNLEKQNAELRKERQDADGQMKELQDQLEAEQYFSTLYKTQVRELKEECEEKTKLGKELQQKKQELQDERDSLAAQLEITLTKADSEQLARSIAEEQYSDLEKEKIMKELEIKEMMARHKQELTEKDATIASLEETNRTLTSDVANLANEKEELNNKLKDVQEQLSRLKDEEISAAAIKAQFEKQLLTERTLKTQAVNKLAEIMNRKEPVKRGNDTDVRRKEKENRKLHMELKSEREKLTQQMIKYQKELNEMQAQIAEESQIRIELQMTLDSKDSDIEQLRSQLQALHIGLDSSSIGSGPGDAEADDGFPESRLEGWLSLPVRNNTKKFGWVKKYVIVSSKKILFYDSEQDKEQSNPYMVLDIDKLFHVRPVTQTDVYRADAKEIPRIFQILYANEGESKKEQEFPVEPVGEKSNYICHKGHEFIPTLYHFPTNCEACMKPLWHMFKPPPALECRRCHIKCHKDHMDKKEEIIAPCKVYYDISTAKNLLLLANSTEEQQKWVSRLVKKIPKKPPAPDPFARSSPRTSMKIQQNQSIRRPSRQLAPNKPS
row,SMILES,IC50 [nM]
1,C[C@H]1CNCCCN1S(=O)(=O)c1cccc2cncc(O)c12,2750
2,C[C@H]1CN(C(=O)CN)CCCN1S(=O)(=O)c1cccc2cncc(Br)c12,42.9
3,C#Cc1cncc2cccc(S(=O)(=O)N3CCCNC[C@@H]3C)c12,6
4,C[C@H]1CNCCCN1S(=O)(=O)c1cccc2cncc(Br)c12,5.83
5,CCc1cncc2cccc(S(=O)(=O)N3CCCNC[C@@H]3C)c12,656
6,C#Cc1cncc2cccc(S(=O)(=O)N3CCCN(C(=O)CN)C[C@@H]3C)c12,42.9
7,Cc1cncc2cccc(S(=O)(=O)N3CCCN(C(=O)CN)C[C@@H]3C)c12,11.8
8,C[C@H]1CNCCCN1S(=O)(=O)c1cccc2cncc(C#N)c12,426
9,NCC(=O)N1CCCN(S(=O)(=O)c2cccc3cnccc23)CC1,527
10,CC(C)(N)[C@H]1CC[C@H](C(=O)Nc2ccncc2)CC1,162

# Continued, values first:
row,IC50 [nM],SMILES
1,123,Cc1cncc2cccc(S(=O)(=O)N3CCNC(C)CC3)c12 (stereo unspecified)
2,804,Cc1cncc2cccc(S(=O)(=O)N3CCCNC[C@@H]3C(C)C)c12
3,113,CC[C@H]1CNCCCN1S(=O)(=O)c1cccc2cncc(C)c12
4,80.6,Cc1cncc2cccc(S(=O)(=O)N3CCCNC(C)C3)c12 (stereo unspecified)
5,12.2,C[C@H]1CNCCCN1S(=O)(=O)c1cccc2cncc(Cl)c12
6,96.8,Cc1cncc2cccc(S(=O)(=O)N3CCCNCC3)c12
7,107,Cc1cncc2cccc(S(=O)(=O)N3CCNCC(C)C3)c12 (stereo unspecified)
8,37.6,Cc1cncc2cccc(S(=O)(=O)N3CCCN(C(=O)CN)CC3)c12

# Target: MAPK14 (UniProt Q16539)
# Sequence (Q16539 whole entry, looked up): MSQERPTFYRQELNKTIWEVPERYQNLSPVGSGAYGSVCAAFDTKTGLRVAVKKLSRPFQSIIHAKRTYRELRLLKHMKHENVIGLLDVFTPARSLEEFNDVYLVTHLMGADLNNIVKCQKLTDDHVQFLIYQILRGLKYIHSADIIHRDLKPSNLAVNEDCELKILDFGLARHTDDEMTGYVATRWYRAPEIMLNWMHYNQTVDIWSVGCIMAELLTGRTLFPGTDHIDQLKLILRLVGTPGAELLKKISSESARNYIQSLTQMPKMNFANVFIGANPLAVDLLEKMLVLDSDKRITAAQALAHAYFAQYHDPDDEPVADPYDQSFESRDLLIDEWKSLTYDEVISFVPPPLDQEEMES
# Assay: Inhibition of MAPK14 Kinase Activity
row,SMILES,IC50 [nM]
1,Cc1cncc2cccc(S(=O)(=O)N3CCCNC[C@@H]3C)c12,100000
2,CC(C)(N)[C@H]1CC[C@H](C(=O)Nc2ccncc2)CC1,> 100000
